These are literature values, as cited in patent publication US10815533B2, “Biomarker for diagnosing anticancer drug resistance of gastric cancer and use thereof” (SAMSUNG LIFE PUBLIC WELFARE FOUNDATION, priority 2017, dated 2020).

For data set [1], the system named is gastric cancer cell line in which FGFR2 was amplified. As to conditions: preclinical result.
The next data set has as its system FGFR2b+gastric cancer. The settings on record: phase I clinical trial, 3 out of 9.

As for `CCN1CCN(c2ccc(Nc3cc(N(C)C(=O)Nc4c(Cl)c(OC)cc(OC)c4Cl)ncn3)cc2)CC1` [BGJ398], in data set [1], the antitumor efficacy result is on record as “strong antitumor efficacy”.

B1: FPA144: selective monoclonal antibody against the FGFR2b subtype (antibody, chains of the INN, looked up, V domains shown)
VH: QVQLVQSGAEVKKPGSSVKVSCKASGYIFTTYNVHWVRQAPGQGLEWIGSIYPDNGDTSYNQNFKGRATITADKSTSTAYMELSSLRSEDTAVYYCARGDFAYWGQGTLVTVSS
VL: DIQMTQSPSSLSASVGDRVTITCKASQGVSNDVAWYQQKPGKAPKLLIYSASYRYTGVPSRFSGSGSGTDFTFTISSLQPEDIATYYCQQHSTTPYTFGQGTKLEIK
Consider B1, for which, in the data set on FGFR2b+gastric cancer, the response rate was 33%.
